Molecules are shown by their SMILES.

The target of the experiment is T1, Rat FAAH (Rattus norvegicus, UniProt P97612).
T1 construct: expressed in transfected cells
T1 sequence (P97612 1-579): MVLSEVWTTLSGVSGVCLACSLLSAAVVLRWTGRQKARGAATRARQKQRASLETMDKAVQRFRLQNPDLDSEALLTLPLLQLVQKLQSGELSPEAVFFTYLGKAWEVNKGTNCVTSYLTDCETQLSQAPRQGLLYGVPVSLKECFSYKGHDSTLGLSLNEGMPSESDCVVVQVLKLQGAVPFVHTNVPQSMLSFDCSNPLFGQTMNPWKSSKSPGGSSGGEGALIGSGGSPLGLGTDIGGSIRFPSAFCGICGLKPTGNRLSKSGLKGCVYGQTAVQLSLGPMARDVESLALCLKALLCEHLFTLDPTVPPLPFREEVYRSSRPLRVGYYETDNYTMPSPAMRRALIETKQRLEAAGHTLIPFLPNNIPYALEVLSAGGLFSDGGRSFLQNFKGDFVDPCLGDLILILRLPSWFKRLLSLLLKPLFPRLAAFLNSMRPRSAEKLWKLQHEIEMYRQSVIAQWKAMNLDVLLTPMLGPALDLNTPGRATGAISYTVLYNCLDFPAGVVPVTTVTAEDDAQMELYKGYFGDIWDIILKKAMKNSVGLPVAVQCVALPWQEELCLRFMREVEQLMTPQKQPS
Put plainly: Rat FAAH whole cell assay (FAAH_CHO cells). The format is cell-based. The settings on record: FAAH inhibition, whole CHO cells expressing rat FAAH. The source says:
Murine (accession number NM_010173) and Rat FAAH (accession number NM_024132) was amplified by reverse transcriptase polymerase chain reaction (RT-PCR) from brain cDNA (BD Biosciences, San Jose, Calif.) using primers 1 and 2 or primers 1 and 3 respectively (see Table). The resulting PCR product was ligated into pCR4 TOPO and DNA sequence confirmed. The full length murine FAAH was subcloned into the mammalian expression vector, pcDEFneo using either EcoRI (murine) or KpnI and EcoRI (rat) restriction sites. Chinese hamster ovary cells (CHO) were transfected following manufacturers protocol (AMAXA). Forty eight hours post transfection, cells were trypsinized and transferred to 96 well plates in Iscove's DMEM media supplemented with 2 mM Glutamine, 10% fetal calf serum, 1 mg/ml geneticin and HT Supplement (0.1 mM sodium hypoxanthine, 0.016 mM thymidine) in order to isolate single clones. Following selection in geneticin, individual clones were selected and FAAH activity was assessed using a whole cell fluorescent anandamide assay, modified from Ramarao et al (2005). Following removal of tissue culture media cells were dislodged following addition of Cellstripper (Mediatech, Inc. Manassas, Va.) and transferred to 96 well black clear bottom assay plate, centrifuged at 1,000 rpm for 3 mins and media removed and replaced with assay buffer (50 mM Tris pH8.0, 1 mM EDTA, 0.1% fatty acid free BSA). The reaction was initiated by addition of fluorescent substrate, AMC Arachidonoyl Amide (Cayman Chemical, Ann Arbor, Mich.) to 1 μM and reaction allowed to proceed for 2 hours at room temperature. Release of fluorescence was monitored in a CytoFluor Multiplate Reader. Cells expressing the highest amount of FAAH activity were selected for study with FAAH inhibitors.
(American Radiolabeled Chemicals; 1 mCi/ml) with FAAH (Life Sciences (1995), 56, 1999-2005 and Journal of Pharmacology and Experimented Therapeutics (1997), 283, 729-734), Analytical. Biochemistry (2003), 318, 270-5. In addition, routine assays were performed monitoring hydrolysis of arachidonyl-7-amino-4-methylcoumarin amide (AAMCA) by following increase in fluorescence upon release of 7-amino 4-methyl coumarin (λEX=355 nm, (λEM=460 nm). Analytical. Biochemistry (2005). 343, 143-51
Assays are performed on either cell lysate or microsome fractions prepared as described or in whole cell format employing either the fluorescent substrate AAMCA (Cayman chemical, Ann Arbor, Mich.) or ^3H-anandmaide ([ETHANOLAMINE-1-3H] American Radiolabeled Chemicals; 1 mCi/ml). The cell lysate or microsome assay is performed in Costar black wall, clear bottom plates by adding FAAH_CHO (whole cell, cell lysate or microsome) in assay buffer (50 mM Phosphate, pH 8.0, 1 mM EDTA, 200 mM KCl, 0.2% glycerol, 0.1% fatty acid free BSA) to each well, followed by either DMSO or compound and allowed to incubate at 22-25° C. for fifteen minutes. AAMCA substrate was used to achieve a final concentration of 1 μM and reaction allowed to proceed at room temperature for 1-3 hours. Fluorescent release as a measure of FAAH activity was monitored by reading the plate in a CytoFluor Multiplate Reader ([…]). Whole cell assay is conducted with cells harvested after rinsing tissue culture flasks three times with Ca^++Mg^++ free PBS, incubating for 10 min in Enzyme free dissociation media and centrifuging for 5 minutes at 1,000 rpm in table top centrifuge. Cells are resuspended in assay buffer at desired cell number in (4×10^4 cells/assay in 96-well format; 1×10^4 cells/assay in 384-well format) and assayed as described.
One may read the IC50 as the concentration that inhibits the measured activity by half. A lower IC50 goes with greater potency in that assay. Molecule `Cn1c(-c2ccccc2)nc(-c2ccc(C#N)cc2)c1Sc1ccc(Cl)cc1` [Ex 2, 4-{5-[(4-Chlorophenyl)thio]-1-methyl-2-phenyl-1H-imidazol-4-yl}benzonitrile] returned an IC50 of 30.1 nM.
The figure for `CS(=O)(=O)c1ccc(-c2nc(C3CCC3)[nH]c2Sc2ccc(Cl)cc2)cc1` [Ex 13] is 702 nM; for `Cn1c(C2CCC2)nc(-c2ccc(S(C)(=O)=O)cc2)c1Sc1ccc(Cl)cc1` [Ex 14] it is 146 nM; for `CC(C)c1nc(-c2ccc(S(C)(=O)=O)cc2)c(Sc2ccc(Cl)cc2)n1C` [Ex 29, 5-[(4-Chlorophenyl)thio]-2-isopropyl-1-methyl-4-[4-(methylsulfonyl)phenyl]-1H-imidazole] it is 105 nM.
The figure for `Cn1cnc(-c2ccc(C#N)cc2)c1Sc1ccc(Cl)cc1` [Ex 33, 4-{5-[(4-chlorophenyl)thio]-1-methyl-1H-imidazol-4-yl}benzonitrile] is 1210 nM; for `Cn1c(-c2ccccn2)nc(-c2ccc(-c3nnco3)cc2)c1Sc1ccc(Cl)cn1` [Ex 36, 5-Chloro-2-({1-methyl-4-[4-(1,3,4-oxadiazol-2-yl)phenyl]-2-pyridin-2-yl-1H-imidazol-5-yl}thio)pyridine] it is 63.4 nM.
Under `Cn1c(-c2ccccn2)nc(-c2ccc(C(O)C(F)F)cc2)c1Sc1ccc(Cl)cc1` (stereo not drawn) [Ex 57, 1-(4-{5-[(4-Chlorophenyl)thio]-1-methyl-2-pyridin-2-yl-1H-imidazol-4-yl}phenyl)-2,2-difluoroethanol] stands 59.6 nM; under `Cn1c(-c2ccccn2)nc(-c2ccc(-n3ccnn3)cc2)c1Sc1ccc(Cl)cc1` [Ex 66], 31.9 nM; under `Cn1c(-c2ccccn2)nc(-c2ccc(N)cc2)c1Sc1ccc(Cl)cc1` [Ex 98, 4-{5-[(4-Chlorophenyl)thio]-1-methyl-2-pyridin-2-yl-1H-imidazol-4-yl}aniline], 870 nM.

These data come from patent publication US8455528B2, “Imidazole derivatives useful as inhibitors of FAAH” (Merck Sharp & Dohme Corp., priority 2008, dated 2013).
